Experiments:
hCYP2C9 = test system: hCYP2C9; parameters: method as in PMID 35139770; conditions: ligand-binding difference spectroscopy; cited from earlier work
mCYP3A11 mRNA = experiment: ex vivo mCYP3A11 mRNA expression in mouse livers (real-time PCR); conditions: male ICR mice, daily oral 100 mg/kg body weight, vs control
Description: (§1) Eight-week-old male ICR (Imprinting Control Region) mice weighing 35–40 g were used to investigate the modulatory effects of atractylodin and β-eudesmol on mCYP1A2 and mCYP3A11. The study protocol was approved by the Ethics Committee for Animal Research at Thammasat University (protocol number 016/2020). All animals were obtained from Nomura Siam International Co., Ltd. (Bangkok, Thailand). The animals were acclimatized for one week before the experiments. A total of 36 mice were allocated to three groups (i) control group (3 mice), (ii) atractylodin-treated group, and (iii) β-eudesmol-treated group. For atractylodin and β-eudesmol-treated groups, animals were fed with 100 mg/kg body weight of each compound for 1, 7, 14, and 21 (3 mice for each dose). Experiments were performed under the guidelines for the care and use of laboratory animals in a controlled environment of 12 h dark/light cycle, temperature 22 ± 2 °C, and relative humidity 30–70% at the Thammasat University Animal Center. Animals were observed daily for changes in signs and symptoms by a veterinarian. Mice were allowed access to the food pellets and water ad libitum.
Total mRNA was extracted from mouse livers using Trizol according to the manufacturer’s instructions. The concentration of mRNA was quantified by a nanodrop spectrophotometer. The First-Strand cDNA Synthesis Kit was used to generate cDNA from RNA. The CFX96 Touch Real-Time PCR Detection System was used to determine the expressions of mCYP1A2, mCYP3A11, and β-actin genes using the iTaq Universal SYBR Green Supermix. The PCR condition and the delta-delta Ct calculation were according to the previously described article. All primers used in this study were synthesized by Gibthai Co. Ltd. (Bangkok, Thailand).

hCYP1A2 = test system: hCYP1A2; parameters: method as in PMID 35139770; conditions: ligand-binding difference spectroscopy; cited from earlier work
hCYP3A4 = test system: hCYP3A4; parameters: method as in PMID 35139770; conditions: ligand-binding difference spectroscopy; cited from earlier work
mCYP3A11 = experiment: ex vivo mCYP3A11 activity in mouse liver microsomes (nifedipine oxidation); conditions: daily oral 100 mg/kg body weight
Description: Phenacetin and nifedipine are substrates of CYP1A2 and CYP3A11, respectively. Both substrates are converted via the CYP enzyme to paracetamol and dehydronefedipine, respectively. The concentrations of paracetamol and dehydronefedipine were used to determine the activities of mCYP1A2 and mCYP3A11. The effects of atractylodin and β-eudesmol on mCYP1A2 and mCYP3A11 activities were, respectively, determined by measuring paracetamol (mCYP1A2-dependent metabolite) and dehydronifiedipine (mCYP3A11-dependent metabolite) concentrations.
as §1
Mouse liver samples were cut into small pieces, and the liver microsomes were prepared as described previously. The concentrations of proteins in the microsomes were determined using Pierce™ BCA Protein Assay Kit. mCYP1A2 and mCYP3A11 activities were evaluated based on phenacetin O-deethylation and nifedipine oxidation activities, respectively. The incubation mixture of 500 µL consisted of microsomes, substrate ([…]), and NADPH. […] The final organic solvent concentration in the incubation mixture was not higher than 1%. Each experiment was repeated three times (duplicated each). Determination of the concentrations of metabolites of mCYP1A2 (paracetamol) and mCYP3A11 (dehydronifedipine) in the reaction was performed using HPLC Agilent 1260 Infinity II with mobile gradient phase between methanol and distilled water at an initial ratio of 20:80 (v:v) and UV detection (240 nm). Calibration curves for both CYP450 activities were created over a concentration range of 1–50 µM. Oxidized nifedipine concentrations were determined using HPLC as follows: UV detection at 235 nm with an isocratic mobile phase consisting of methanol and distilled water (70:30, v:v). […] In each analytical batch, quality control (QC) samples were run in duplicate at low, medium, and high concentrations. Acceptance criteria were four out of six QC analyses falling within 100 ± 15% of the nominal values.

hCYP2C19 = test system: hCYP2C19; parameters: method as in PMID 35139770; conditions: ligand-binding difference spectroscopy; cited from earlier work
[1] = test system: all rCYP450s (rCYP1A2, rCYP2C9, rCYP2C19, rCYP2D6, rCYP3A4); experiment: luminogenic CYP450 inhibition assay, statement over all five rCYP450s
Description: The luminescent cytochrome P450 assay was used to determine CYP450-mediated (CYP1A2, 2C9, 2C19, 2D6, and 3A4) metabolism of atractylodin and β-eudesmol. The assay consisted of each recombinant human CYP450 (rCYP450), control membranes lacking P450 activity, a luminogenic CYP450 substrate (luciferin-ME substrate for rCYP1A2, luciferin-H substrate for rCYP2C9, luciferin-H EGE substrate for rCYP2C19, luciferin-ME EGE substrate for rCYP2D6, and luciferin-IPA substrate for rCYP3A4), KPO4 buffer, luciferin free water, NADPH regeneration system, and a luciferin detection reagent. The rCYP450 enzymes were generated from a baculovirus-infected insect cell expression system. The concentrations of the recombinant CYPs used were 0.5 (rCYP1A2 and rCYP2C9), 0.25 (rCYP2C19 and rCYP2D6) or 0.2 (rCYP3A4) pmol (0.5μL) per reaction. […] A luciferin product was produced after adding 25 µL of NADPH Regeneration System (solution A, solution B, and luciferin-free water) and incubated at 37 °C for 10 (rCYP1A2 and rCYP3A4), 20 (rCYP2C19 and rCYP2C9) or 30 (rCYP2D6) minutes. The reaction was stopped and converted to a luminescent signal after adding Luciferin Detection Reagent (50 µL) and incubated at 25 °C for 20 min. The luminescence signals obtained were determined using a Varioskan® Flash microplate reader (Waltham, MA, USA). The magnitude of luminescence in all of the samples represented CYP450 activity. […]

For `C=C1CCC[C@]2(C)CC[C@@H](C(C)(C)O)C[C@@H]12` [β-Eudesmol], the “binding to hCYP2C9” value (hCYP2C9) is listed as “not”, the “Fold-changes of mCYP3A11 mRNA levels” value (mCYP3A11 mRNA; 1 day, 100 mg/kg) is listed as 2.18 fold and the “Fold-changes of mCYP3A11 mRNA levels” value (mCYP3A11 mRNA; 7 days, 100 mg/kg) is listed as 1.5 fold. The “Fold-changes of mCYP3A11 mRNA levels” value (mCYP3A11 mRNA; 7 days, listed as β‐eudesmol, 100 mg/kg) was 1.50 fold, the “Fold-changes of mCYP3A11 mRNA levels” value (mCYP3A11 mRNA; 14 days) was 0.96 fold and the “Fold-changes of mCYP3A11 mRNA levels” value (mCYP3A11 mRNA; 21 days) was 0.78 fold. The “binding to hCYP1A2” value (hCYP1A2) was “bound”, the “binding to hCYP3A4” value (hCYP3A4) was “bound” and the “Dehydronifedipine concentration (mCYP3A11 activity)” value (from here on “Dehydronifedipine concentration”) (mCYP3A11; 1 day, control 6.70) was 6.90 µM. For the same compound, the “Dehydronifedipine concentration” value (mCYP3A11; 7 days, control 6.90) was 7.5 µM, the “Dehydronifedipine concentration” value (mCYP3A11; 14 days, control 7.55, listed as β-eudesmol, 100 mg/kg) was “significantly reduced” and the “Dehydronifedipine concentration” value (mCYP3A11; 14 days, control 7.55, listed as β‐eudesmol, 100 mg/kg) was 4.00 µM. For the same compound, the “Dehydronifedipine concentration” value (mCYP3A11; 21 days, control 7.75, listed as β-eudesmol, 100 mg/kg) was “significantly reduced”, the “Dehydronifedipine concentration” value (mCYP3A11; 21 days, control 7.75, listed as β‐eudesmol, 100 mg/kg) was 3.20 µM and the “binding to hCYP2C19” value (hCYP2C19) was “not”.

For `C/C=C/C#CC#C/C=C/c1ccco1` [Atractylodin], the “Fold-changes of mCYP3A11 mRNA levels” value (mCYP3A11 mRNA; 1 day) was 1.72 fold, the “Fold-changes of mCYP3A11 mRNA levels” value (mCYP3A11 mRNA; 7 days) was 1.3 fold and the “Fold-changes of mCYP3A11 mRNA levels” value (mCYP3A11 mRNA; 14 days) was 0.87 fold. The “Fold-changes of mCYP3A11 mRNA levels” value (mCYP3A11 mRNA; 21 days) was 0.62 fold, the “inhibitory effects on all rCYP450s (potency class)” value [1] was “weak (weak (IC50 ≥ 50 µM))” and the “Dehydronifedipine concentration” value (mCYP3A11; 1 day, control 6.70, 100 mg/kg) was “significant reduction”. The “Dehydronifedipine concentration” value (mCYP3A11; 1 day, control 6.70, listed as Atactylodin, 100 mg/kg) was 5.35 µM, the “Dehydronifedipine concentration” value (mCYP3A11; 7 days, control 6.90, 100 mg/kg) was “significant reduction” and the “Dehydronifedipine concentration” value (mCYP3A11; 7 days, control 6.90, listed as Atactylodin, 100 mg/kg) was 5.20 µM. For the same compound, the “Dehydronifedipine concentration” value (mCYP3A11; 14 days, control 7.55, 100 mg/kg) was “significant reduction”, the “Dehydronifedipine concentration” value (mCYP3A11; 14 days, control 7.55, listed as Atactylodin, 100 mg/kg) was 6.10 µM and the “Dehydronifedipine concentration” value (mCYP3A11; 21 days, control 7.75, 100 mg/kg) was “significant reduction”. For the same compound, the “Dehydronifedipine concentration” value (mCYP3A11; 21 days, control 7.75, listed as Atactylodin, 100 mg/kg) was 3.75 µM.
